In article PMC11671526, “β-caryophyllene sensitizes hepatocellular carcinoma cells to chemotherapeutics and inhibits cell malignancy through targeting MAPK signaling pathway” (Frontiers in Pharmacology, 2024):

Test system: HepG2 cells
Test: RNA-seq transcriptome analysis of differentially expressed genes
Type: cell-based, human
Conditions: BCP vs control HepG2, RNA-seq
Description: The quality and concentration of RNA were examined by MOPS RNA electrophoresis and Eppendorf BioSpectrometer. The transcriptome analysis was performed by BGI-Wuhan China. The RNA-seq dataset of this study is accessible in the Gene Expression Omnibus (GEO) with an access number of GSE276099. The sequence library for each sample was prepared using the BGISEQ-500 platform with a 50-bp single-end (SE50) format. […]2.2.1) was used to align the clean reads to the reference genome and alignment of the clean reads to the reference genes was carried out using Bowtie2 (v2.4.5) ([Langmead and Salzberg, 2012]; [Kim et al., 2015]). Gene expression levels were calculated by RSEM (v1.3.1) ([Li and Dewey, 2011]). Analysis of differential gene expression was performed using edgeR in the Bioconductor software package ([Robinson et al., 2010]). Using a standard protocol, the RNA samples were also examined by reverse transcription and quantitative polymerase chain reaction (RT-qPCR). In brief, for reverse transcription, total RNA (1 μg) and gDNA wiper Mix were incubated at 42°C for 2 min. The samples were immediately incubated with a master mix containing 10 pmol/μL of poly (dT) primers at 37°C for 15 min and 85°C for 5 s. To detect the expression of specific genes by qPCR analysis, gene-specific primers (shown in Supplementary Table S1) were mixed with the ChamQ Universal SYBER qPCR Master Mix and the reaction was conducted using the Roche Lightcycler 480. The GAPDH value was used to normalize the results of each gene. The RNA-seq data of BCP-treated HepG2 cells were screened for DEGs. Gene symbols were turned into Enterz ID using the org.Hs.eg.db Bio-conductor R package. The cluster profiler (v4.6.2) package was used to perform the Kyoto Encyclopedia of Genes and Genomes (KEGG) and Gene Ontology (GO) enrichment analyses ([Wu et al., 2021]). Following the Transcript per million (TPM) data of the dataset, the line chart, and heatmap were plotted using ggplot2 and pheatmap R packages, respectively.

C=C1CC/C=C(\C)CC[C@@H]2[C@@H]1CC2(C)C [BCP, β-caryophyllene]
ABCA4 change: Up | ABCA4 logFC: 1.08 | ABHD16B change: Down | ABHD16B logFC: -0.7624 | ACCS change: Up | ACCS logFC: 0.7756 | ADAT3 change: Down | ADAT3 logFC: -0.6489 | ADGRE1 change: Down | ADGRE1 logFC: -1.049 | ADORA1 change: Down | ADORA1 logFC: -0.951 | ADORA2A change: Down | ADORA2A logFC: -0.7747 | ADRA2C change: Down | ADRA2C logFC: -0.8257 | AGT change: Up | AGT logFC: 0.6624 | AKR1C1 change: Down | AKR1C1 logFC: -0.9841 | ALOX12B change: Down | ALOX12B logFC: -0.7891 | ALOXE3 change: Down | ALOXE3 logFC: -1.101 | ANK1 change: Down | ANK1 logFC: -0.6258 | ANK2 change: Up | ANK2 logFC: 0.6135 | ANKRD63 change: Down | ANKRD63 logFC: -1.109 | ANO9 change: Up | ANO9 logFC: 0.6598 | AOX1 change: Down | AOX1 logFC: -0.7887 | ARHGAP25 change: Down | ARHGAP25 logFC: -0.9496 | ARTN change: Down | ARTN logFC: -0.6893 | B3GNT4 change: Down | B3GNT4 logFC: -0.8549 | BEST1 change: Up | BEST1 logFC: 0.7297 | BOC change: Down | BOC logFC: -1.001 | BOLA2B change: Down | BOLA2B logFC: -1.579 | BORCS8-MEF2B change: Up | BORCS8-MEF2B logFC: 0.7383 | C4orf50 change: Down | C4orf50 logFC: -0.84 | C7orf31 change: Up | C7orf31 logFC: 0.8499 | C14orf132 change: Down | C14orf132 logFC: -0.9885 | C15orf62 change: Down | C15orf62 logFC: -0.8151 | CACNA1D change: Up | CACNA1D logFC: 0.899 | CACNA1E change: Down | CACNA1E logFC: -0.8241 | CAMK2N2 change: Down | CAMK2N2 logFC: -0.8129 | CARMIL2 change: Down | CARMIL2 logFC: -0.818 | CDC25C change: Up | CDC25C logFC: 0.5857 | CENPE change: Up | CENPE logFC: 0.6854 | CERS4 change: Down | CERS4 logFC: -0.7861 | CHST6 change: Down | CHST6 logFC: -0.6638 | CILP2 change: Down | CILP2 logFC: -0.9152 | CLEC7A change: Down | CLEC7A logFC: -1.627 | CLGN change: Up | CLGN logFC: 0.5838 | COL9A2 change: Up | COL9A2 logFC: 0.6974 | CPAMD8 change: Up | CPAMD8 logFC: 0.9195 | CRYBG1 change: Down | CRYBG1 logFC: -0.6404 | CSF1R change: Up | CSF1R logFC: 1.132 | CTNNBIP1 change: Up | CTNNBIP1 logFC: 0.608 | CYP24A1 change: Up | CYP24A1 logFC: 0.7733 | CYP39A1 change: Down | CYP39A1 logFC: -0.966 | D2HGDH change: Up | D2HGDH logFC: 0.7244 | DEPTOR change: Down | DEPTOR logFC: -0.8053 | DOK7 change: Up | DOK7 logFC: 0.6123 | DPF1 change: Down | DPF1 logFC: -0.7852 | DUSP18 change: Down | DUSP18 logFC: -1.0326 | ELOVL6 change: Down | ELOVL6 logFC: -0.6915 | EN2 change: Down | EN2 logFC: -0.8276 | ENPP1 change: Up | ENPP1 logFC: 0.6168 | EPHA7 change: Up | EPHA7 logFC: 0.6078 | ERVV-2 change: Up | ERVV-2 logFC: 0.6706 | FAAH2 change: Up | FAAH2 logFC: 0.6861 | FAM72A change: Up | FAM72A logFC: 0.7318 | FAM167B change: Down | FAM167B logFC: -1.112 | FAM222A change: Down | FAM222A logFC: -0.6769 | FAR2 change: Down | FAR2 logFC: -0.7201 | FBXL22 change: Down | FBXL22 logFC: -1.204 | FDXACB1 change: Down | FDXACB1 logFC: -1.018 | FES change: Down | FES logFC: -1.129 | FGF11 change: Down | FGF11 logFC: -0.6148 | FGF12 change: Up | FGF12 logFC: 0.873 | FHIT change: Up | FHIT logFC: 0.955 | FICD change: Up | FICD logFC: 0.637 | FUT3 change: Down | FUT3 logFC: -0.9413 | GBP4 change: Down | GBP4 logFC: -1.639 | GGT2 change: Up | GGT2 logFC: 0.9035 | GJD3 change: Down | GJD3 logFC: -0.6605 | GPD1 change: Up | GPD1 logFC: 0.9345 | GPR3 change: Down | GPR3 logFC: -1.067 | GPR158 change: Up | GPR158 logFC: 0.961 | GRIP2 change: Down | GRIP2 logFC: -0.6933 | H3C6 change: Down | H3C6 logFC: -0.6656 | H4C8 change: Down | H4C8 logFC: -0.9939 | HBA1 change: Down | HBA1 logFC: -0.7699 | HPD change: Up | HPD logFC: 0.6168 | HPGD change: Down | HPGD logFC: -0.5852 | IFIT1 change: Down | IFIT1 logFC: -0.7944 | IFIT2 change: Down | IFIT2 logFC: -0.7214 | IL7R change: Down | IL7R logFC: -0.8033 | IMMP2L change: Up | IMMP2L logFC: 0.6542 | IQCG change: Up | IQCG logFC: 0.9618 | ISYNA1 change: Down | ISYNA1 logFC: -1.197 | JMJD7-PLA2G4B change: Up | JMJD7-PLA2G4B logFC: 0.8598 | KCP change: Up | KCP logFC: 1.479 | KHDC1 change: Down | KHDC1 logFC: -0.6694 | KRT34 change: Up | KRT34 logFC: 0.7278 | LOC100133315 change: Up | LOC100133315 logFC: 0.7126 | LOC102724200 change: Up | LOC102724200 logFC: 1.529 | LOC102724788 change: Up | LOC102724788 logFC: 0.903 | LOC107984638 change: Down | LOC107984638 logFC: -1.075 | LRRC56 change: Down | LRRC56 logFC: -0.591 | LRRK2 change: Down | LRRK2 logFC: -0.8118 | MAST4 change: Down | MAST4 logFC: -0.6435 | MCTP2 change: Up | MCTP2 logFC: 0.7514 | MORN4 change: Up | MORN4 logFC: 0.6216 | MVB12B change: Up | MVB12B logFC: 0.6743 | MXRA8 change: Down | MXRA8 logFC: -0.6329 | MYB change: Down | MYB logFC: -0.6747 | MYH14 change: Up | MYH14 logFC: 0.8331 | MYPN change: Up | MYPN logFC: 0.6564 | NCF2 change: Down | NCF2 logFC: -1.214 | NEBL change: Up | NEBL logFC: 0.5931 | NECAB2 change: Up | NECAB2 logFC: 0.9799 | NEIL3 change: Up | NEIL3 logFC: 0.6475 | NEK11 change: Up | NEK11 logFC: 0.7755 | NFE2 change: Down | NFE2 logFC: -0.6303 | NPHS1 change: Up | NPHS1 logFC: 1.189 | NPIPA3 change: Down | NPIPA3 logFC: -0.8968 | NPY4R change: Up | NPY4R logFC: 0.7533 | NR5A2 change: Down | NR5A2 logFC: -0.6198 | NR6A1 change: Down | NR6A1 logFC: -0.7194 | NYAP1 change: Down | NYAP1 logFC: -0.7161
